The values below come from patent US20250066769A1, “METHODS OF SCREENING AND TREATING FRAGILE X SYNDROME” (YISSUM RESEARCH DEVELOPMENT COMPANY OF THE HEBREW …, priority 2021, published 2025).

In data set [1] the test system is FMR1 expression in FXS-iPSCs. Nature of the data set: RT-PCR analysis of FMR1 expression in FXS-iPSCs. Type of data set: cell-based, human. The settings on record: for FMR1 transcription levels (RT-PCR): lentiviral Cas9 and two sgRNAs per candidate gene, vs basal level. An excerpt: Cell lines: Throughout the study the following cell lines were used: The FXS-iPSCs cell line A52. Haploid hpESCs-hPES10. CSES7 and CSES9 hESCs and their derivatives were used as a reference for wild type expression. 293T cells were used for the construction of lentiviral constructs.
RNA isolation and reverse transcription: Total RNA was isolated using NucleoSpin RNA Plus kit (Macherey-Nagel) and reverse transcribed using the qScript® cDNA Synthesis Kit. Quantitative real time PCR (qRT-PCR) was performed using SYBR Green qPCR Supermix (Applied Biosystems) and analyzed with the 7300 real-time PCR system (Applied biosystems). FMR1 expression was assessed using specific primers, which amplified a 147 bp product spanning exons 5-6 of FMR1. GAPDH was used for normalization.
DNMT1 disruption assay: As human pluripotent stem cells require DNA methylation for their viability, heterogenous DNMT1-mutant populations of FXS-iPSCs were generated by infecting the cells with a lentiCRISPR v2 lentiviral vector containing an sgRNA that targets the open reading frame of DNMT1. The sgRNA sequence was cloned into the lentiCRISPR v2 plasmid and transformed into Stb13 chemically competent bacteria. Following plasmid isolation, 293T cells were transfected with sgRNA-containing lentiCRISPR V2, psPAX2, and pCMV-VSV-G plasmids at a ratio of 13.3:10:6.6, respectively, in the presence of polyethylenimine ‘Max’ (Polysciences). Lentiviral particle-containing supernatant was collected ˜65 hours after transfection and filtered using […] filters. For transduction, FXS-iPSCs were trypsinized, centrifuged, and suspended in embryonic stem cell media supplemented with 10 μM ROCK inhibitor (Y27632) and 8 μg/ml polybrene (Sigma). The viruses were added to the cell suspension, and the cells were plated on MEFs overnight. After ˜36 hours, the cells' medium was replaced with puromycin-containing medium ([…], Sigma). After 2-14 days selection with puromycin, cells were harvested for RNA extraction. To confirm DNMT1 mutagenesis in the transduced cells, qRT-PCR primers that were designed to have their 3′ ends around the Cas9 cut-site of DNMT1 were used to analyze the abundance of wild-type copies to DNMT1 transcripts.
Generation of gene knockouts: Ten candidate genes were targeted using a lentiviral construct containing Cas9 and a specific sgRNA (Table 2). Two sgRNAs were used to target each candidate gene. Each sgRNA sequence was inserted into a separate lentiCRISPR v2 vector (Addgene cat. No. 52961). As a control, a lentiCRISPR v2 vector without any sgRNA (empty vector) was used. Lentiviruses were produced using 293T cells cultured in 10 cm plates using transfection with the sgRNA-containing-lentiCRISPR v2 construct, psPAX2 (Addgene cat. No. 12260) and pCMV-VSV-G (Addgene cat. No. 8454) at a ratio of 5.32:4:2.64 ratio, in the presence of polyethylenimine “Max” (PEI-Max) (Polysciences) at a 1:2 ratio of DNA to PEI-Max. After 24 hours, the medium was exchanged with standard hESC medium, which was harvested 60-65 hours following transfection, centrifuged, and filtered through 0.45 μm cellulose acetate filters (Millipore). The filtered supernatant was frozen in aliquots at −70° C. For transduction, FXS-iPSCs or haploid human ESCs were trypsinized with TrypLE™ Select, centrifuged, and resuspended in hESC medium supplemented with 8 μg ml-1 polybrene (Sigma) and 10 μM ROCK inhibitor (Y27632). Thawed or fresh viruses were added to the cell suspension, followed by plating the cells on feeder layer MEFs. […]

Data set [2] deals with methylated pFMR1-(240) CGG-EGFP construct in haploid hESCs. Nature of the data set: methylated pFMR1-(240) CGG-EGFP reporter transfection in mutant haploid hESCs, flow cytometry. Format: cell-based, human. The following applies: Cas9 + two sgRNAs per gene, compared to Cas9 without sgRNA. Here is the method: In vitro DNA methylation: pFMR1-n (CGG)-eGFP construct was methylated using an M.SssI CpG methyltransferase (NEB) according to manufacturer's recommendations. SAM concentration was adjusted to 640 μM. DNA was extracted using ethanol precipitation.
Library transfection: 10 μM ROCK inhibitor (Y27632) was added 1 hour prior to trypsinization and transfection. Library cells were harvested using TrypLE™ Select Enzyme solution (Thermo Fisher Scientific, Cat #12563029) in a single cell state. Following the first centrifugation, cells were re-suspended twice with DMEM/F12 and centrifuged again before incubation with the plasmid DNA. Transfection of the methylated pFMR1-CGG (240)-EGFP construct was performed using the Xtreme Gene9 reagent (Roche), using standard conditions. 48 hours following transfection, cells were washed with PBS, harvested using TrypLE™ Select, resuspended in PBS supplemented with 15% fetal bovine serum (FBS) and filtered through a 70-μm cell strainer (Corning) and sorted using BD FACDAria III. Transfection efficiency was assessed using the simultaneous transfection of control haploid hESCs with an unmethylated pFMR1-CGG (240)-EGFP construct.
Generation of gene knockouts: Ten candidate genes were targeted using a lentiviral construct containing Cas9 and a specific sgRNA (Table 2). Two sgRNAs were used to target each candidate gene. Each sgRNA sequence was inserted into a separate lentiCRISPR v2 vector (Addgene cat. No. 52961). As a control, a lentiCRISPR v2 vector without any sgRNA (empty vector) was used. Lentiviruses were produced using 293T cells cultured in 10 cm plates using transfection with the sgRNA-containing-lentiCRISPR v2 construct, psPAX2 (Addgene cat. No. 12260) and pCMV-VSV-G (Addgene cat. No. 8454) at a ratio of 5.32:4:2.64 ratio, in the presence of polyethylenimine “Max” (PEI-Max) (Polysciences) at a 1:2 ratio of DNA to PEI-Max. After 24 hours, the medium was exchanged with standard hESC medium, which was harvested 60-65 hours following transfection, centrifuged, and filtered through 0.45 μm cellulose acetate filters (Millipore). […]
Background: In flow cytometry, cells or beads pass a laser one at a time.

For “5′-aza-2′-deoxycytidine [5-azadC, reference compound]”, the “FMR1 expression (RT-PCR)” value in data set [1] (5 μM, 4 days) is recorded as “reactivation of FMR1 expression”. Turning to “C6orf57: lentiviral Cas9 constructs with two sgRNAs targeting C6orf57 (guide 1 GAGACCCAGCTAAGCAACCA; guide 2 TCCCAATCTCCATATCGGGT; expressed or natural sequence; listed as Homo sapiens)”, the “FMR1 transcription levels (RT-PCR)” value in data set [1] is “some increase above basal FMR1 transcription levels”. For the same substance, the “methylated construct expression (relative GFP fluorescence)” value in data set [2] is “highest levels of methylated construct expression”.

For the substance “SMARCD1: lentiviral Cas9 constructs with two sgRNAs targeting SMARCD1 (guide 1 GGAGCCGGGCCCATTCGCAC; guide 2 GCCACTACCCAGGAGACCGA; expressed or natural sequence; listed as Homo sapiens)”, in data set [1], the “FMR1 transcription levels (RT-PCR)” value is recorded as “some increase above basal FMR1 transcription levels”. In addition, in data set [2], the “methylated construct expression (relative GFP fluorescence)” value was “highest levels of methylated construct expression”. The corresponding values for “ZNF217: lentiviral Cas9 constructs with two sgRNAs targeting ZNF217 (guide 1 GTGGTGAACGGATCGAGCTG; guide 2 TCTGGATGAAAATGGAGCCG; expressed or natural sequence; listed as Homo sapiens)” are “some increase above basal FMR1 transcription levels” and “highest levels of methylated construct expression”. For “sgRNA targeting DNMT1: lentiCRISPR v2 vector with Cas9 and sgRNA GAGGCCAGAAGGAGGAACCG targeting DNMT1 (listed as Homo sapiens)”, in data set [1] (lentiviral sgRNA + Cas9, collected 7-14 days after start of selection, vs control FXS-iPSCs), the “FMR1 expression (RT-PCR)” value was “reactivation of FMR1 expression”.
